In patent publication US20060128614A1, “Antimicrobial peptides with reduced hemolysis and methods of their use” (priority 2002, published 2006):
≈ marks a conversion by molar mass, not a printed value. Like-named read-outs stand apart in the source and are kept apart here. Non-standard residues stand in square brackets, D forms with d. Residues, ends and D or L forms follow the SMILES beside them. Bip = N[C@@H](Cc1ccc(-c2ccccc2)cc1)C(=O)O; 1Nal = N[C@@H](Cc1cccc2ccccc12)C(=O)O; 2Nal = N[C@@H](Cc1ccc2ccccc2c1)C(=O)O

What was measured:
S. aureus = format: cell-based, Staphylococcus aureus
Protocol: (§1) The in vitro antimicrobial activities of antimicrobial agents were tested using standard NCCLS bacterial and fungi inhibition assays or minimum inhibition concentration (MIC) tests. The MIC value is the lowest concentration of peptide at which the visible growth of test organisms was inhibited and reduced. Overnight cultures of the test organisms were diluted to produce an inoculum containing approximately […] in Meuller-Hinton broth (MHB). From the peptide stock solution, serial dilutions of the peptides into […] were prepared and all wells of a 96-well microtiter plate were subsequently inoculated with the diluted culture of the test organisms. After 18 hours of incubation at 37°, the results were assayed for turbidity as an indicator of cell growth. MIC values for the peptides are shown in Table 3 and Table 4 and FIGS. 1(A), 1(B), 1 (C) and 1 (D) show survival rates for Pac-625 and Pac-626.

E. coli = format: cell-based, Escherichia coli
Protocol: as §1

[1] = tested on: human red blood cells (RBC); format: cell-based
Protocol: Pac-401, Pac-403, Pac-625 and Pac-626 were tested for hemolysis against human red blood cells (RBC). The RBCs with EDTA were rinsed 3 times with PBS (800 g, 10 min) and re-suspended in PBS. The RBCs were diluted into 10% with phosphate-buffered saline and placed […] into each eppendorf. The peptides dissolved in PBS were then added to 50 μl of 10% solution of RBCs and incubated for an hour at 37° C. (final RBC concentration, 5% v/v). The samples were centrifuged at 800 g for 10 min […]. Various concentrations of peptides were incubated with pretreated RBC and the percentage of hemolysis determined.

[2] = tested on: outer membrane of E. coli; test: NPN uptake assay, outer membrane permeabilization; format: cell-based; conditions: intact cells of E. coli
Protocol: The outer membrane permeabilization activity of the peptide variants was determined by the 1-N-phenylnaphthylamine (NPN) uptake assay, using intact cells of E. coli. […] Since NPN is hydrophobic, it provides a direct measurement of the degree of outer membrane permeability. E. coli take up little or no NPN in a general condition. In the presence of permeabilizer compounds (EDTA, polymyxin B, Neomycin, or antimicrobial peptides), NPN partitioned into the bacterial outer membrane results in an increase in fluorescence. Fluorescence will vary with the concentration of peptide.
One ml of overnight culture was used to inoculate 50 ml of media and incubated at 37° C. with shaking. The culture was permitted to grow to an OD600 of 0.4 to 0.6, cells were spun down at 3500 rpm for 10 minutes, washed, and re-suspended in buffer to an OD600 of 0.5. The OD600 was recorded, 1 ml of cells (OD600=0.5) was added to the cuvette and measured after 2-5 seconds. 20 μl NPN 0.5 mM, shaken to mix, was added and measured after 2-5 seconds. 10 ul antibiotic 100× desired final concentration was added, shaken to mix, and measured until the maximal value was reached within 1 to 5 minutes. The concentration of peptide leading to 50% of the maximum increase in NPN uptake was recorded as the P50.

[3] = qualitative statement

CC[C@H](C)[C@@H]1NC(=O)[C@H](Cc2ccc3ccccc3c2)NC(=O)[C@H](CCCNC(=N)N)NC(=O)[C@H](CCCNC(=N)N)NC(=O)[C@H](Cc2ccc3ccccc3c2)NC(=O)[C@H](CCCCN)NC1=O [Pac-401 C, K (2-Nal) R R (2-Nal) I] (cyclo(K[2Nal]RR[2Nal]I); ring closure inferred)
MIC against S. aureus (S. aureus; 18 h): >64 µg/mL
MIC against E. coli (E. coli; 18 h): >64 µg/mL

CC[C@H](C)[C@H](NC(=O)[C@H](Cc1ccc2ccccc2c1)NC(=O)[C@H](CCCNC(=N)N)NC(=O)[C@H](CCCNC(=N)N)NC(=O)[C@H](Cc1ccc2ccccc2c1)NC(=O)[C@H](CCCCN)NC(C)=O)C(N)=O [Pac-401 L, K (2-Nal) R R (2-Nal) I] (Ac-K[2Nal]RR[2Nal]I-NH2)
MIC against S. aureus (S. aureus; 18 h): 8 µg/mL (≈ 7.94 µM)
% lysis @ 5 μg/ml [1]: 0.85%
% lysis @ 50 μg/ml [1]: 6.8%
% lysis @ 500 μg/ml [1]: 14%
MIC against E. coli (E. coli; 18 h): 16 µg/mL (≈ 15.9 µM)

CC(C)[C@@H]1NC(=O)[C@H](Cc2ccc3ccccc3c2)NC(=O)[C@H](CCCNC(=N)N)NC(=O)[C@H](CCCNC(=N)N)NC(=O)[C@H](Cc2ccc3ccccc3c2)NC(=O)[C@H](CCCCN)NC1=O [Pac-402 C, K (2-Nal) R R (2-Nal) V] (cyclo(K[2Nal]RR[2Nal]V); ring closure inferred)
MIC against S. aureus (S. aureus; 18 h): >64 µg/mL
MIC against E. coli (E. coli; 18 h): >64 µg/mL

CC(=O)N[C@@H](CCCCN)C(=O)N[C@@H](Cc1ccc2ccccc2c1)C(=O)N[C@@H](CCCNC(=N)N)C(=O)N[C@@H](CCCNC(=N)N)C(=O)N[C@@H](Cc1ccc2ccccc2c1)C(=O)N[C@H](C(N)=O)C(C)C [Pac-402 L, K (2-Nal) R R (2-Nal) V] (Ac-K[2Nal]RR[2Nal]V-NH2; N-terminus and C-terminus assumed)
MIC against S. aureus (S. aureus; 18 h): 16 µg/mL (≈ 16.1 µM)
P50 (concentration of peptide leading to 50% of the maximum increase in NPN uptake) [2]: 16 µg/mL
MIC against E. coli (E. coli; 18 h): 24 µg/mL (≈ 24.2 µM)

CC[C@H](C)[C@@H]1NC(=O)[C@H](Cc2ccc3ccccc3c2)NC(=O)[C@H](CCCCN)NC(=O)[C@H](CCCNC(=N)N)NC(=O)[C@H](Cc2ccc3ccccc3c2)NC(=O)[C@H](CCCCN)NC1=O [Pac-403 C, K (2-Nal) I K (2-Nal) R] (cyclo(K[2Nal]IK[2Nal]R); ring closure inferred)
MIC against S. aureus (S. aureus; 18 h): >64 µg/mL
MIC against E. coli (E. coli; 18 h): >64 µg/mL

CC[C@H](C)[C@H](NC(=O)[C@H](Cc1ccc2ccccc2c1)NC(=O)[C@H](CCCCN)NC(C)=O)C(=O)N[C@@H](CCCCN)C(=O)N[C@@H](Cc1ccc2ccccc2c1)C(=O)N[C@@H](CCCNC(=N)N)C(N)=O [Pac-403 L, K (2-Nal) I K (2-Nal) R] (Ac-K[2Nal]IK[2Nal]R-NH2)
MIC against S. aureus (S. aureus; 18 h): 16 µg/mL (≈ 16.3 µM)
% lysis @ 5 μg/ml [1]: 0.74%
% lysis @ 50 μg/ml [1]: 7.2%
% lysis @ 500 μg/ml [1]: 15%
MIC against E. coli (E. coli; 18 h): 24 µg/mL (≈ 24.5 µM)

CC[C@H](C)[C@H](NC(C)=O)C(=O)N[C@@H](Cc1c[nH]c2ccccc12)C(=O)N[C@@H](CCCNC(=N)N)C(=O)N[C@H](C(=O)N[C@@H](Cc1c[nH]c2ccccc12)C(=O)N[C@@H](CCCNC(=N)N)C(=O)N[C@@H](CCCNC(=N)N)C(=O)N[C@@H](Cc1c[nH]c2ccccc12)C(=O)N[C@@H](CCCCN)C(N)=O)C(C)C [Pac-525rev, Ac-IWRVWRRWK-NH2] (Ac-IWRVWRRWK-NH2)
hemolytic activity [3]: very similar to that of Pac-525

CC[C@H](C)[C@H](NC(=O)[C@H](Cc1ccc2ccccc2c1)NC(=O)[C@H](CCCCN)NC(=O)[C@@H](NC(=O)[C@H](Cc1ccc2ccccc2c1)NC(=O)[C@H](CCCCN)NC(=O)[C@@H](NC(=O)[C@H](Cc1ccc2ccccc2c1)NC(=O)[C@H](CCCCN)NC(C)=O)[C@@H](C)CC)[C@@H](C)CC)C(N)=O [Pac-621, Ac-K(2-Nal) IK(2-Nal) IK(2-Nal) I-NH2] (Ac-K[2Nal]IK[2Nal]IK[2Nal]I-NH2)
MIC against S. aureus (S. aureus): 16 µg/mL (≈ 11.6 µM)
MIC against E. coli (E. coli): 8 µg/mL (≈ 5.82 µM)

CC[C@H](C)[C@@H]1NC(=O)[C@H](Cc2ccc3ccccc3c2)NC(=O)[C@H](CCCNC(=N)N)NC(=O)[C@H](C(C)C)NC(=O)[C@H](Cc2ccc3ccccc3c2)NC(=O)[C@H](CCCNC(=N)N)NC(=O)[C@H](CCCNC(=N)N)NC(=O)[C@H](Cc2ccc3ccccc3c2)NC(=O)[C@H](CCCCN)NC1=O [Pac-625 C, K (2-Nal) R R (2-Nal) V R (2-Nal) I] (cyclo(K[2Nal]RR[2Nal]VR[2Nal]I); ring closure inferred)
MIC against S. aureus (S. aureus; 18 h): 64 µg/mL (≈ 45.7 µM)
MIC against E. coli (E. coli; 18 h): 64 µg/mL (≈ 45.7 µM)

CC[C@H](C)[C@@H]1NC(=O)[C@H](CCCCN)NC(=O)[C@H](Cc2ccc3ccccc3c2)NC(=O)[C@H](CCCNC(=N)N)NC(=O)[C@H](CCCNC(=N)N)NC(=O)[C@H](Cc2ccc3ccccc3c2)NC(=O)[C@H](C(C)C)NC(=O)[C@H](CCCNC(=N)N)NC(=O)[C@H](Cc2ccc3ccccc3c2)NC1=O [Pac-626 C, I (2-Nal) R V (2-Nal) R R (2-Nal) K] (cyclo(I[2Nal]RV[2Nal]RR[2Nal]K); ring closure inferred)
MIC against S. aureus (S. aureus; 18 h): 64 µg/mL (≈ 45.7 µM)
MIC against E. coli (E. coli; 18 h): 64 µg/mL (≈ 45.7 µM)

CC[C@H](C)[C@@H]1NC(=O)[C@H](Cc2cccc3ccccc23)NC(=O)[C@H](CCCNC(=N)N)NC(=O)[C@H](C(C)C)NC(=O)[C@H](Cc2cccc3ccccc23)NC(=O)[C@H](CCCNC(=N)N)NC(=O)[C@H](CCCNC(=N)N)NC(=O)[C@H](Cc2cccc3ccccc23)NC(=O)[C@H](CCCCN)NC1=O [Pac-627 C, K (1-Nal) R R (1-Nal) V R (1-Nal) I] (cyclo(K[1Nal]RR[1Nal]VR[1Nal]I); ring closure inferred)
MIC against S. aureus (S. aureus; 18 h): 64 µg/mL (≈ 45.7 µM)
MIC against E. coli (E. coli; 18 h): 64 µg/mL (≈ 45.7 µM)

CC[C@H](C)[C@H](NC(=O)[C@H](Cc1cccc2ccccc12)NC(=O)[C@H](CCCNC(=N)N)NC(=O)[C@@H](NC(=O)[C@H](Cc1cccc2ccccc12)NC(=O)[C@H](CCCNC(=N)N)NC(=O)[C@H](CCCNC(=N)N)NC(=O)[C@H](Cc1cccc2ccccc12)NC(=O)[C@H](CCCCN)NC(C)=O)C(C)C)C(N)=O [Pac-627 L, K (1-Nal) R R (1-Nal) V R (1-Nal) I] (Ac-K[1Nal]RR[1Nal]VR[1Nal]I-NH2)
MIC against S. aureus (S. aureus): 4 µg/mL (≈ 2.74 µM)
MIC against S. aureus (S. aureus; 18 h): 4 µg/mL (≈ 2.74 µM)
MIC against E. coli (E. coli): 4 µg/mL (≈ 2.74 µM)
MIC against E. coli (E. coli; 18 h): 4 µg/mL (≈ 2.74 µM)

CC[C@H](C)[C@@H]1NC(=O)[C@H](Cc2ccc(-c3ccccc3)cc2)NC(=O)[C@H](CCCNC(=N)N)NC(=O)[C@H](C(C)C)NC(=O)[C@H](Cc2ccc(-c3ccccc3)cc2)NC(=O)[C@H](CCCNC(=N)N)NC(=O)[C@H](CCCNC(=N)N)NC(=O)[C@H](Cc2ccc(-c3ccccc3)cc2)NC(=O)[C@H](CCCCN)NC1=O [Pac-628 C, K (Bip) R R (Bip) V R (Bip) I] (cyclo(K[Bip]RR[Bip]VR[Bip]I); ring closure inferred)
MIC against S. aureus (S. aureus; 18 h): 64 µg/mL (≈ 43.3 µM)
MIC against E. coli (E. coli; 18 h): 64 µg/mL (≈ 43.3 µM)

CC[C@H](C)[C@H](NC(=O)[C@H](Cc1ccc(-c2ccccc2)cc1)NC(=O)[C@H](CCCNC(=N)N)NC(=O)[C@@H](NC(=O)[C@H](Cc1ccc(-c2ccccc2)cc1)NC(=O)[C@H](CCCNC(=N)N)NC(=O)[C@H](CCCNC(=N)N)NC(=O)[C@H](Cc1ccc(-c2ccccc2)cc1)NC(=O)[C@H](CCCCN)NC(C)=O)C(C)C)C(N)=O [Pac-628 L, K (Bip) R R (Bip) V R (Bip) I] (Ac-K[Bip]RR[Bip]VR[Bip]I-NH2)
MIC against S. aureus (S. aureus): 4 µg/mL (≈ 2.6 µM)
MIC against S. aureus (S. aureus; 18 h): 4 µg/mL (≈ 2.6 µM)
P50 (concentration of peptide leading to 50% of the maximum increase in NPN uptake) [2]: 4 µg/mL
MIC against E. coli (E. coli): 2 µg/mL (≈ 1.3 µM)
MIC against E. coli (E. coli; 18 h): 2 µg/mL (≈ 1.3 µM)

CC[C@H](C)[C@H](NC(=O)[C@H](Cc1ccc2ccccc2c1)NC(=O)[C@H](CCCNC(=N)N)NC(=O)[C@@H](NC(=O)[C@H](Cc1ccc2ccccc2c1)NC(=O)[C@H](CCCNC(=N)N)NC(=O)[C@@H](NC(=O)[C@H](Cc1ccc2ccccc2c1)NC(=O)[C@H](CCCCN)NC(C)=O)[C@@H](C)CC)C(C)C)C(N)=O [Pac-629, Ac-K(2-Nal) IR(2-Nal) VR(2-Nal) I-NH2] (Ac-K[2Nal]IR[2Nal]VR[2Nal]I-NH2)
MIC against S. aureus (S. aureus): 4 µg/mL (≈ 2.82 µM)
MIC against E. coli (E. coli): 8 µg/mL (≈ 5.65 µM)
